These are literature values, as cited in patent US20250000937A1 (ZHAOKE (HONG KONG) OPHTHALMOLOGY PHARMACEUTICAL LTD., priority 2021, published 2025).

Data set [1] has as its system DED. As to conditions: in vivo.
The subject of data set [2] is DED. As to conditions: OPUS-1, mean baseline ICSS of 1.84.
The conditions of data set [3]: in vivo.

For the compound `CS(=O)(=O)c1cccc(C[C@H](NC(=O)c2c(Cl)cc3c(c2Cl)CCN(C(=O)c2ccc4ccoc4c2)C3)C(=O)O)c1` [Lifitegrast], in the data set with DED [1], the “Time to show efficacy against DED signs and symptoms” value was 3 months. In addition, in the data set with DED [2], the “Proportion of patients with at least a 1-point improvement in ICSS from baseline to day 84” value is 22.2%. Further, the “Patients with instillation site pain” value in data set [3] is recorded as 22%.
